The values that follow come from ChEMBL document CHEMBL1201862, “PubChem BioAssay data set” (2004).

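Briefly, cells in 96-well plates were exposed to five compound concentrations for 48 h, and endpoints were estimated by linear interpolation. GI50 = concentration required for 50% inhibition of growth.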 Activity calls are given as the source filed them. No stated cut-off is given here; in the data, active = GI50 up to about 1.1 µM and inactive = higher. Some results are limits rather than exact numbers.

Assay in all cases: NCI tumour cell line growth inhibition, 48 h
In assay [1] the test system is MDA-MB-435.
Assay [2] has as its system CAKI-1.
The subject of assay [3] is LOX IMVI.
Assay [4] deals with NCI-H522.
Assay [5] has as its system SN12C.
The test system of assay [6] is MDA-MB-231.
Assay [7] relates to RXF 393.
The test system of assay [8] is SW-620.
For assay [9], the system named is UO-31.
The test system of assay [10] is COLO 205.
Assay [11] has as its system 786-0.
Assay [12] deals with TK-10.
The test system of assay [13] is MOLT-4.
Assay [14] deals with SR.
For assay [15], the system named is NCI-H23.
Assay [16] concerns M14.
Assay [17] relates to HCT-116.
The subject of assay [18] is CCRF-CEM.
The test system of assay [19] is ACHN.
The subject of assay [20] is OVCAR-8.

With `Brc1ccc(-c2[nH]c3ccccc3c2/N=N\c2ccccc2)cc1`, the GI50 was 19.1 µM (inactive) in assay [1]; 14.7 µM (inactive) in [2]; 30.8 µM (inactive) in assay [3]; 17.6 µM (inactive) in [4]; 17.3 µM (inactive) in assay [5]; 19.1 µM (inactive) in assay [6]. Also, the GI50 was 16.6 µM (inactive) in assay [7]; 17.5 µM (inactive) in [8]; 16 µM (inactive) in [9]; 15 µM (inactive) in [10]; 18.2 µM (inactive) in [11]; 21.1 µM (inactive) in [12]. The GI50 is 16.9 µM (inactive) in assay [13]; 15.3 µM (inactive) in assay [14]; 18.2 µM (inactive) in assay [15]; 17.5 µM (inactive) in assay [16]; 19 µM (inactive) in assay [17]; > 10 µM (inactive) in [18]. Further, the GI50 in assay [19] is 20.6 µM (inactive).
Take `CC1(C)N=c2c(ncn2CCCO)=C(C(N)=O)N1`: the GI50 in assay [1], in [2], in [3], in [4], in assay [5] and in [6] was > 100 µM (inactive) in each case. Moreover, the GI50 in [7], in [8], in assay [10], in [11], in assay [12] and in [14] was > 100 µM (inactive) in each case. Besides, the GI50 in [15], in assay [16], in [17], in assay [18], in assay [20] and in [19] was > 100 µM (inactive) each time.
Consider `COc1cccc(CCNC(=O)Cc2ccccc2CCO)c1`, for which the GI50 in [1], in assay [2], in [4], in [5], in assay [6] and in [7] was > 100 µM (inactive) throughout. Further, the GI50 in assay [8], in assay [9], in assay [10], in assay [11], in [12] and in assay [13] was > 100 µM (inactive) in each case. The GI50 in assay [14], in [15], in assay [16], in assay [17], in assay [18] and in assay [20] was > 100 µM (inactive) each time. For the same molecule, the GI50 in assay [19] was > 100 µM (inactive).
As for `O=c1[nH]nc(-c2ccccc2)n1/N=C/c1ccccc1O`, the GI50 was > 100 µM (inactive) in assay [1]; > 100 µM (inactive) in assay [2]; > 100 µM (inactive) in assay [3]; 42.7 µM (inactive) in assay [4]; > 100 µM (inactive) in assay [5]; 70 µM (inactive) in assay [6]. Also, the GI50 in [7] is 29.7 µM (inactive); in [8], > 100 µM (inactive); in assay [9], > 100 µM (inactive); in [10] it was > 100 µM (inactive); in [11], 29.2 µM (inactive); in assay [12], > 100 µM (inactive). Besides, the GI50 was > 100 µM (inactive) in assay [13]; > 100 µM (inactive) in assay [14]; > 100 µM (inactive) in assay [15]; 33.4 µM (inactive) in assay [17]; 47.6 µM (inactive) in assay [20]; 63.2 µM (inactive) in assay [19].
For `CCO/C=N\c1c(C#N)c(-c2ccc(Cl)cc2)cn1-c1ccc(C)cc1`, the GI50 in [1], in assay [2], in [3], in [4], in [5] and in assay [6] was > 100 µM (inactive) in each case. Also, the GI50 in assay [7], in assay [8], in assay [9], in assay [10], in assay [11] and in assay [12] was > 100 µM (inactive) throughout. Moreover, the GI50 was 0.0272 µM (active) in assay [14]; > 100 µM (inactive) in assay [15]; > 100 µM (inactive) in assay [16]; > 100 µM (inactive) in assay [17]; > 100 µM (inactive) in assay [18]; > 100 µM (inactive) in [20]. Also, in [19], the GI50 was > 100 µM (inactive).
Take `O=[N+]([O-])c1ccc2oc(=N/c3ccccc3)/c(=N\c3ccccc3)[nH]c2c1`: the GI50 in assay [1] was > 100 µM (inactive); in [2] it was 61.1 µM (inactive); in assay [3] it was 88.1 µM (inactive); in [4], 6.97 µM (inactive); in assay [5] it was 46.5 µM (inactive); in assay [6], 7.87 µM (inactive). The GI50 was 24.9 µM (inactive) in [7]; > 100 µM (inactive) in assay [8]; 77.1 µM (inactive) in assay [9]; > 100 µM (inactive) in assay [10]; 22.6 µM (inactive) in assay [11]; 26.8 µM (inactive) in assay [12]. The GI50 is > 100 µM (inactive) in assay [13]; > 100 µM (inactive) in assay [14]; 57.4 µM (inactive) in assay [15]; 48.2 µM (inactive) in assay [17]; > 100 µM (inactive) in [18]; 75.3 µM (inactive) in [20]. Moreover, the GI50 in assay [19] was 24.7 µM (inactive).
Consider `N#Cc1c(NC(=S)Nc2ccccc2)sc2c1CCCC2`, for which the GI50 in assay [1], in assay [2], in assay [3], in assay [4], in assay [5] and in assay [6] was > 100 µM (inactive) in each case. Moreover, the GI50 in assay [7], in assay [8], in assay [9], in assay [10], in [11] and in assay [12] was > 100 µM (inactive) throughout. Also, the GI50 in [13], in assay [14], in [15], in [17], in assay [20] and in assay [19] was > 100 µM (inactive) each time.
Turning to `CC(C)=CCC[C@@H](C)c1c2nc3ccccc3[nH]c-2c(C)c(=O)c1O`, the GI50 is 2.73 µM (inactive) in assay [1]; 1.14 µM (inactive) in [2]; 1.75 µM (inactive) in assay [3]; 1.24 µM (inactive) in [5]; 1.73 µM (inactive) in [6]; 1.14 µM (inactive) in [7]. For the same molecule, the GI50 in assay [8] is 3.13 µM (inactive); in assay [9] it was 0.714 µM (active); in assay [10] it was 5.65 µM (inactive); in [11] it was 1.75 µM (inactive); in assay [12] it was 2.58 µM (inactive); in assay [13], 1.44 µM (inactive). The GI50 was 3.41 µM (inactive) in [14]; 1.89 µM (inactive) in assay [15]; 1.44 µM (inactive) in assay [16]; 1.36 µM (inactive) in assay [17]; 0.27 µM (active) in assay [18]; 1.71 µM (inactive) in assay [20]. For the same molecule, the GI50 in assay [19] was 0.568 µM (active).
Take `C=CCn1c(-c2ccc(/N=N/Nc3ccc(-c4n[nH]c(=S)n4CC=C)cc3)cc2)n[nH]c1=S`: the GI50 in assay [1] is 3.33 µM (inactive); in assay [2] it was 4.57 µM (inactive); in assay [3] it was 3.4 µM (inactive); in assay [4] it was 2.92 µM (inactive); in assay [5], 3.49 µM (inactive); in assay [6], 22 µM (inactive). Moreover, the GI50 was 13.9 µM (inactive) in [7]; 7.13 µM (inactive) in [8]; 1.83 µM (inactive) in assay [9]; 2.94 µM (inactive) in assay [10]; 8.41 µM (inactive) in assay [11]; 11.8 µM (inactive) in [12]. Also, the GI50 was 2.01 µM (inactive) in assay [13]; 2.84 µM (inactive) in [14]; 3.22 µM (inactive) in assay [15]; 3.03 µM (inactive) in assay [16]; 3.13 µM (inactive) in assay [18]; 2.8 µM (inactive) in assay [20]. Further, the GI50 in assay [19] was 2.21 µM (inactive).
On to `CCCC(CCN)(CCN)[N+](=O)[O-]`, for which the GI50 in assay [1], in [2], in assay [4], in [5], in assay [6] and in assay [7] was > 100 µM (inactive) throughout. In addition, the GI50 in assay [8], in [9], in assay [10], in [11], in assay [12] and in assay [13] was > 100 µM (inactive) throughout. Moreover, the GI50 in [14], in assay [15], in assay [16], in [17], in [18] and in assay [20] was > 100 µM (inactive) each time. Also, in [19], the GI50 was > 100 µM (inactive).
As for `CC(C)N1CCN(c2ccc(OCC3COC(Cn4cncn4)(c4ccc(Cl)cc4Cl)O3)cc2)CC1` (stereo unspecified) [TERCONAZOLE], the GI50 in assay [1] is 4.97 µM (inactive); in assay [2], 17.3 µM (inactive); in [3] it was 12 µM (inactive); in [4], 15.2 µM (inactive); in assay [5] it was 15.8 µM (inactive); in assay [6], 14 µM (inactive). The GI50 was 11.6 µM (inactive) in assay [7]; 15.3 µM (inactive) in assay [8]; > 21.9 µM (inactive) in assay [9]; 1.9 µM (inactive) in assay [10]; 4.06 µM (inactive) in assay [11]; 9.62 µM (inactive) in assay [12]. Besides, the GI50 in assay [13] was 10.9 µM (inactive); in assay [14], 3.33 µM (inactive); in assay [15], 14.2 µM (inactive); in assay [17], 11.2 µM (inactive); in assay [18], 11.5 µM (inactive); in assay [20], 17.3 µM (inactive). For the same molecule, in assay [19], the GI50 is 20.6 µM (inactive).
